Assay results published in patent US20250367283A1, “MEVALONATE PATHWAY INHIBITOR AS HIGHLY-EFFICIENT VACCINE ADJUVANT” (Tsinghua University, priority 2015, published 2025).
Read-outs that look alike come from different tables or passages of the source.

Key:
[1] = biological target: humanized farnesyl pyrophosphate synthase (HsFPPS) (Homo sapiens (Human), UniProt P14324); assay: In vitro HsFPPS enzyme activity assay; format: biochemical
Experimental: The measurement method is briefly described as follows: the expression of HsFPPS with 6 consecutive His at the N-terminus was induced in vitro, collected, and purified by Ni column. An in vitro HsFPPS enzyme activity assay was performed in a 96-well plate with 200 μl of solution per well. The buffer of the system was 25 mM HEPES, 2.5 mM MgCl2, pH 7.4. Using DMAPP and IPP as reaction substrates, the change of the UV value at a wavelength of 360 nm was monitored in real time in a phosphate lyase system. The ORIGIN 8.0 software was used to plot and fit. The IC50 values for the inhibition of FPPS by the TH-Z80 series of compounds were shown in the following table, in micromoles per liter (μM).
(§1) HsFPPs with 6 consecutive His at the N-terminus was induced to express in vitro, collected, and purified by Ni column. In vitro HsFPPs enzymatic activity assay was performed in a 96-well plate at 200 μl of solution per well. The buffer of the system was 25 mM HEPES, 2.5 mM MgCl2, pH 7.4. Using DMAPP and IPP as reaction substrates, the changes of UV at 360 nm were monitored in real-time in phosphate lyase system. ORIGIN 8.0 software was used to plot and fit.

[2] = tested on: PvGGPPS (geranylgeranyl pyrophosphate synthase from Plasmodium); assay: In vitro PvGGPPS enzymatic activity assay; format: biochemical; settings: GPP and IPP substrates
Experimental: as §1, with “PvGGPPs” for “HsFPPs”, “GPP” for “DMAPP”, “a” for “the changes of UV at”, “continuous spectrophotometric detection was performed” for “were monitored”, “a” for “real-time in”

[3] = tested on: Plasmodium falciparum 3D7; assay: Test of plasmodium activity (SYBR-GREEN1); format: cell-based; settings: infected erythrocytes, 72 hours; read-out: Malaria (IC50/μM)
Experimental: Plasmodium falciparum 3D7 was cultured with […] medium mixed with 10% human O-type blood serum and 25 mM HEPES. The cultivation process was maintained in a carbon dioxide incubator under 5% carbon dioxide. In vitro drug testing experiments were performed on a 96-well plate. The test drug was dissolved in PBS and pre-diluted with complete medium. Infected erythrocytes were cultured in triplicate for 72 hours in 3-fold serial dilutions of drug. Then an equal amount of SYBR-GREEN1 was added to each well. The detection was then performed at 485 nm for excitation light and 538 nm for emitted light. […] ORIGIN 8.0 software was used to plot and fit.

MDA-MB-231 cells = assay: MDA-MB-231 proliferation MTT test; format: cell-based, human; settings: 72 hours
Experimental: • Drug dissolution: […] The prepared bisphosphonate stock solution was diluted with DMEM complete medium. The maximum concentration was 1 mM. The dilution was performed serially in a ratio of 1:3.2 with a total of 11 concentration gradients; a. MDA-MB-231 cells were digested the day before. Centrifugation was performed at 1000 rmp for 3 min. The cells were counted. The cells were seeded into a 96-well plate at 3000 cells/well in a volume of 100 μl per well and cultured for 14-16 h. It should be noted that the cell count should be accurate, and the amount of cells seeded per well should be consistent. The cell suspension can be gently shaken in the intermittence of plating, or a row of cells were plated and the cell suspension was pipetted gently with a pipette. The speed of pipetting into the 96-well plate with a pipette should not be too fast or too slow, in order to avoid uneven distribution of cells in the plate, affecting the experiments; the wells at the fringe of the 96-well plate will evaporate slightly faster and the concentration of the solution will change slightly faster. Under normal situation, the central 60 wells should be selected for stimulation. Also, the pipetted liquid should be prevented from creating bubbles. b. After the cells had adhered, the liquid in the 96-well plate was pipetted out and discarded. […] c. 72 hours after the action of drug, the prepared MTT solution (immediately before use, a certain amount of MTT powder was weighed and dissolved in PBS at 5 mg/ml, under dark, filter with 0.22 filter membrane) was added directly to each well with 20 μl per well and continued to culture for 4 hours; d. The filter paper (which can be replaced by an absorbent paper) was laid, and the plate was inverted gently (be careful to prevent the crystal in the well from dropping). After the liquid in the wells was removed, 150 μl of DMSO was added to dissolve the crystals, and the mixture was shaken thoroughly with a shaker for a period of time just to dissolve the crystals. The absorbance (OD value) of each well was measured at 570 nm with ELIASA. The mean value of blank control was calculated as OD Blank. OD value for each well=OD measured-OD Blank. ODNT mean value was calculated. […] Mean and standard error were then calculated. The mean and standard error of each group of drug concentration (uM) and corresponding drug inhibition rate were fitted by Graph Prism software to obtain the IC50 of the drug.

[4] = tested on: anti-OVA IgM and IgG antibodies; assay: OVA evaluation system: adjuvant activity in antibody titer in mice; format: in vivo; settings: for IgM and IgG antibody titers vs PBS or DMSO control / adjuvant effect among statin drugs: statins with OVA, soles injection; for IgM and IgG antibody titers vs PBS or DMSO control: Day 7 and Day 14
Experimental: OVA evaluation system was used to determine adjuvant activity in antibody titer.
Mice of C57B/6 strain were used. The mice in the experimental group were injected with the obtained mixture of each of the statins and OVA antigen through soles injection, with 20 μl for each mouse. The mice in the control group were injected with a 1:1 mixture of PBS or DMSO (10 μl) and 10 μl OVA antigen (PBS or DMSO is 10 μl, respectively, and the antigen is 10 μl) through soles injection, with 20 μl for each mouse. On Day 7 and Day 14 after immunization, blood was taken from the mice's orbits, with 100 μl was taken from each mouse. The obtained blood was left at 4° C. overnight, and centrifuged at 6000 rpm for 8 min. The supernatant serum was removed and the titers of anti-OVA IgM and IgG antibodies in the serum were determined.
Test of the OVA antibody titer: The OVA protein was diluted to a concentration of 2 μg/ml with a carbonate solution of pH 9.6, coated in a 96-well ELISA plate at 50 μl per well, and left at 4° C. overnight. The ELISA plate was washed five times with PBS containing 0.05% Tween 20, blocked with 1% BSA solution at 200 μl per well, and incubated at room temperature for 2 h. The ELISA plate was washed five times with PBST (Phosphate Buffered Saline with Tween), a 2-fold serial dilution of the mouse serum after immunized with OVA was added at 50 μl per well and incubated at room temperature for 2 h. After the ELISA plate was washed five times with PBST, HRP (horseradish peroxidase)-labeled goat-anti-mouse IgM or IgG antibody was added and incubated at room temperature for 45 min. The ELISA plate was washed five times with PBST, and a color developing solution of sodium citrate OPD (o-phenylenediamine) was added. After 10 min of color development in the dark, sulfuric acid was added to terminate the reaction. The reading was performed with ELIASA OD490. The maximum serum dilution factor, when the ratio of light absorptions of the experimental group to the control group was >2.0, was the titer of the anti-OVA antibody in the serum.
Each test compound was formulated at a concentration of 2 mg/ml and the concentration of OVA antigen was 2 mg/ml. Each compound was mixed with OVA at 1:1. Each C57B/6 mouse in the experimental group was injected with 100 μl of the mixture (containing 50 μl of the antigen and 50 μl of the compound) by intramuscular injection at the right thigh. On Day 7 and Day 14 after immunization, blood was taken from the mice's orbit, and 100 μl was taken for each mouse. The obtained blood was allowed to stand at 4° C. overnight, and centrifuged at 6000 rpm for 8 min. The supernatant serum was removed, and the titers of anti-OVA IgM and IgG antibodies in the serum were determined.
Method: each of the test compounds (the 10 bisphosphonates as described above) was mixed with the OVE antigen at 1:1, and the concentrations of bisphosphonic acid and OVA were both 10 mg/ml. Mice of C57B/6 strain were used. The mice in the experimental group were injected with the mixture of each of the test compounds and OVA antigen through soles injection, with 20 μl for each mouse, and wherein the amounts of OVA antigen and each of the test compounds were both 100 ug. The mice in the control group were injected with a 1:1 mixture of […] and 10 μl OVA antigen through sole injection. On Day 7 and Day 14 after immunization, blood was taken from the mice's orbits, and 100 μl was taken from each mouse.
The obtained blood was left at 4° C. overnight, and centrifuged at 6000 rpm for 8 min. The supernatant serum was removed, and the titers of anti-OVA IgM and IgG antibodies in the serum were determined.
Method: TH-Z144 and TH-Z145 were prepared at the concentration of 10 mg/ml, the concentration of OVA antigen was also 10 mg/ml, and the compound and the antigen were mixed at 1:1. Mice of C57B/6 strain were used.

[5] = Example 15 table, read-out: HsFPPS (IC50/μM)
[6] = TH-Z80 series, DMAPP and IPP substrates, pH 7.4, read-out: IC50 for inhibition of FPPS
[7] = o-aminopyridine bisphosphonic acid compounds, read-out: IC50 (inhibition of FPPS)

Chain of humanized farnesyl pyrophosphate synthase (HsFPPS) (P14324 whole entry, looked up): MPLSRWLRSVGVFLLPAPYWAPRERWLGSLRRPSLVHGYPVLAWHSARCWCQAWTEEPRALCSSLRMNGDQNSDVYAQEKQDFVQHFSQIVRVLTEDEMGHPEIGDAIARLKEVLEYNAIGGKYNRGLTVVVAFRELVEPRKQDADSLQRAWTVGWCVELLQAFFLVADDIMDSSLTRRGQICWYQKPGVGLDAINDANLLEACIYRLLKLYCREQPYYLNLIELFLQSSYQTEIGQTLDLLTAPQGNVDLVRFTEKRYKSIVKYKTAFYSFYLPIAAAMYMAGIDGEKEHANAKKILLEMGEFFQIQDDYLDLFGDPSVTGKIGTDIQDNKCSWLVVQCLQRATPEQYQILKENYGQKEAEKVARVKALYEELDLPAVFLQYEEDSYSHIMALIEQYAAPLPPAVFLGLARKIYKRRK

CCCOc1ccc2c(c1)ncn2CC(O)(P(=O)(O)O)P(=O)(O)O [TH-Z149]
IC50 [1, 5]: 0.27 µM | IC50 [1, 6]: 0.27 µM | IC50 [2]: 0.47 µM | IC50 [3]: 0.92 µM | IC50 (MDA-MB-231 cells): 36100 nM

O=P(O)(O)C(Nc1cc(-n2cc3c(n2)CCCC3)ccn1)P(=O)(O)O [TH-Z108]
IC50 [1, 7]: 0.112 µM

O=C(O)C[C@H](O)C[C@H](O)/C=C/c1c(C2CC2)nc2ccccc2c1-c1ccc(F)cc1 [pitavastatin, reference compound]
IgM and IgG antibody titers vs PBS or DMSO control [4]: significantly higher titers

CC(C)n1c(/C=C/C(O)CC(O)CC(=O)O)c(-c2ccc(F)cc2)c2ccccc21 (stereo not shown) [fluvastatin, reference compound]
IgM and IgG antibody titers vs PBS or DMSO control [4]: significantly higher titers

O=P(O)(O)C(Nc1cc(OCc2ccccc2)ccn1)P(=O)(O)O [TH-Z106]
IC50 [1, 7]: 0.108 µM

CC(=C\C(=O)O)/C=C(\C)C[C@H](C)CCCC[C@H]1OC(=O)[C@@H]1CO [Hymeglusin, 11-[3R-(hydroxymethyl)-4-oxo-2R-oxetanyl]-3,5,7R-trimethyl-2E,4E-undecadienoic acid, reference compound]
IgG antibody titer vs PBS control ([4]; 100 μg, intramuscular, fourteen days after immunization): significantly higher titers

CC[C@H](C)C(=O)O[C@H]1CCC=C2C=C[C@H](C)[C@H](CC[C@@H]3C[C@@H](O)CC(=O)O3)[C@H]21 [mevastatin, reference compound]
adjuvant effect among statin drugs [4]: most significant adjuvant effects | IgM and IgG antibody titers vs PBS or DMSO control [4]: significantly higher titers

NC(=O)c1cc(COc2ccnc(NC(P(=O)(O)O)P(=O)(O)O)c2)ccn1 [TH-Z109]
IC50 [1, 7]: 0.643 µM

O=P(O)(O)C(O)(Cn1cnc2cc(OCl)ccc21)P(=O)(O)O [II-7]
IC50 [1, 5]: 0.16 µM | IC50 [2]: 0.82 µM | IC50 [3]: 0.69 µM

CCOc1ccc2c(c1)ncn2CC(O)(P(=O)(O)O)P(=O)(O)O [TH-Z148]
IC50 [1, 5]: 0.068 µM | IC50 [1, 6]: 0.068 µM | IC50 [2]: 0.56 µM | IC50 [3]: 1.86 µM | IC50 (MDA-MB-231 cells): 7300 nM

O=P([O-])([O-])C(CCCc1cccc(Oc2ccccc2)c1)S(=O)(=O)[O-].[K+].[K+].[K+] (stereo not shown) [TH-Z66, reference compound]
IgG antibody titer vs control group ([4]; 7 days after immunization): lower than those in mice in the control group | adjuvant effect ([4]; SQS inhibitor): does not have an adjuvant effect | IgG and IgM antibody titers vs PBS control ([4]; SQS inhibitor 100 μg with OVA, sole): did not differ significantly

CC(C)c1nc(N(C)S(C)(=O)=O)nc(-c2ccc(F)cc2)c1/C=C/[C@@H](O)C[C@@H](O)CC(=O)O [rosuvastatin, reference compound]
IgM and IgG antibody titers vs PBS or DMSO control [4]: significantly higher titers

CCCCCOc1ccc2c(c1)ncn2CC(O)(P(=O)(O)O)P(=O)(O)O [TH-Z151]
IC50 [1, 5]: 0.12 µM | IC50 [1, 6]: 0.12 µM | IC50 [2]: 0.46 µM | IC50 [3]: 1.25 µM | IC50 (MDA-MB-231 cells): 406000 nM

CCCCOc1ccc2c(c1)ncn2CC(O)(P(=O)(O)O)P(=O)(O)O [TH-Z150]
IC50 [1, 5]: 0.14 µM | IC50 [1, 6]: 0.14 µM | IC50 [2]: 0.28 µM | IC50 [3]: 0.78 µM | IC50 (MDA-MB-231 cells): 128000 nM

CCCCCCCCCCCCOc1ccc2c(c1)ncn2CC(O)(P(=O)(O)O)P(=O)(O)O [TH-Z154]
IC50 [1, 5]: > 5 µM | IC50 [1, 6]: > 5 µM | IC50 [2]: 5.16 µM | IC50 [3]: 0.75 µM

CC[C@H](C)C(=O)O[C@H]1C[C@@H](C)C=C2C=C[C@H](C)[C@H](CC[C@@H]3C[C@@H](O)CC(=O)O3)[C@H]21 [lovastatin, reference compound]
adjuvant effect among statin drugs [4]: most significant adjuvant effects | IgM and IgG antibody titers vs PBS or DMSO control [4]: significantly higher titers

CCCCCCOc1ccn2c(CC(O)(P(=O)(O)O)P(=O)(O)O)cnc2c1 [TH-Z97, (1-hydroxy-2-(7-n-hexyloxyimidazo[1,2-a]pyridin-3-yl)ethane-1,1-diyl)bisphosphonic acid]
IC50 [1]: 0.06 µM | IgG antibody titer vs PBS control ([4]; Day 7 and Day 14, OVA): significantly higher titers
